Experimental data from patent publication US20080181971A1, “Combination Cancer Treatments Comprising Elsamitrucin and Other Agents” (priority 2007, published 2008).
Like-named read-outs stand apart in the source and are kept apart here.

Columns and labels:
Assay type in all cases: cell-based
[1] = tested on: HT29 human colon carcinoma cell line; assay: MTT growth inhibition assay, single agents and fixed-ratio combinations with elsamitrucin (Chou-Talalay, CalcuSyn), HT29
Method: (§1) These individual agents and their combinations were evaluated for in vitro activity against the HT29 colon carcinoma, SKMES non-small cell lung carcinoma, and Daudi B-lymphoblastic cell lines. Cell growth in 96-well microculture plates was determined with a semi-automated MTT assay. Efficacies of drug combinations were analyzed according to the methods of Chou and Talalay, utilizing CalcuSyn software. Twenty-one in vitro experiments were conducted to determine the individual and combined growth inhibitory activities of elsamitrucin and the ten selected agents in the three cell lines.
(§2) b. Cell Lines. The human HT29 colon carcinoma, SKMES non-small cell lung carcinoma, and Daudi B-lymphoblastic cell lines were originally obtained from ATCC (American Type Culture Collection). These cell lines have been maintained and stored as frozen stocks. […] The medium for Daudi cells was additionally supplemented with 1 mM sodium pyruvate.
(§3) c. Growth Inhibition Assay. Anti-proliferative activities against the HT29, SKMES, and Daudi cell lines were evaluated in vitro by the MTT assay. Cells (1,500-2,000 cells/well) were seeded in a 96-well microculture plate in 180 pL of medium/well. […] DMSO was present in all wells at a final concentration of 0.1%. […] When the appropriate cell density was attained in the control wells, the plates were centrifuged briefly, and 100 pL of the growth medium was removed. The cell cultures were incubated with 50 μL of MTT reagent (1 mg/mL in Dulbecco's phosphate-buffered saline) for 4 hr at 37° C. The resultant purple formazan precipitate was solubilized with 200 μL of 0.04 N HCl in isopropanol.
(§4) The results of each experiment were stored in Excel format.
(§5) d. Preliminary Experiments: Design and Data Analysis. […] The initial experiments utilized serial three-fold dilutions of the drugs to produce ten test concentrations over a broad concentration range. Based on the initial results, a narrower concentration range was selected, and serial 1:1.5 dilutions were utilized to produce ten test concentrations. Experiments were repeated as needed.
(§6) For assays that utilized lower dilution factors to produce narrower concentration ranges, the results were analyzed with both Prism and CalcuSyn (as described below) to allow comparison of the IC50 and Da, values. The results guided the selection of appropriate concentration ranges and concentration ratios for the combination experiments.
(§7) e. Combination Experiments: Design and Data Analysis. The fixed-ratio design of Chou was used for the combination experiments. For each experiment, the drug solutions were mixed at a ratio that was expected to provide approximately equipotent concentrations, and the mixture was serially diluted with medium containing 1% DMSO to yield 10× stock solutions of the test concentrations. […] Each agent was tested individually and in combination at seven concentrations. The concentration range selected for each assay was designed to bracket the concentrations that produced half-maximal effects (ED50) with each single agent and their mixture. The concentrations used for the single-drug assays were twice as high as their concentrations in the mixture. Each assay was performed in quadruplicate. For each drug combination, the individual agents and their mixture were assayed on the same 96-well plate. The effects of the individual drugs and their combinations were analyzed by the method of Chou and Talalay. The results of each experiment were entered into CalcuSyn (BIOSOFT) for dose-effect analysis.
(§8) where Acontrol and Adrug are the respective absorbances of vehicle control and drug-treated wells in the MIT assay.
(§9) where the slope, m, is related to the sigmoidicity of the dose-effect curve, with m=1, >1, and <1 indicating hyperbolic, sigmoidal, and reverse sigmoidal shapes, respectively.

[2] = tested on: Daudi human lymphoma cell line; assay: MTT growth inhibition assay, single agents and fixed-ratio combinations with elsamitrucin (Chou-Talalay, CalcuSyn), Daudi; settings: Homo sapiens, Daudi
Method: as §1, §2, §3, §4, §5, §6, §7, §8, §9

[3] = tested on: SKMES human non-small cell lung carcinoma cell line; assay: MTT growth inhibition assay, single agents and fixed-ratio combinations with elsamitrucin (Chou-Talalay, CalcuSyn), SKMES; settings: for IC50: Homo sapiens
Method: as §1, §2, §3, §4, §5, §6, §7, §8, §9

[4] = HT29, single agent on the same plate as the combination, read-out: Dm Value, Individually, Second Agent
[5] = Homo sapiens, HT-29, SPA-01 (HT29-e21), single agent, dilution 1:3, read-out: Prism IC50
[6] = Homo sapiens, HT-29, SPA-04 (HT29-e22), single agent, dilution 1:1.5, read-out: CalcuSyn Dm
[7] = Homo sapiens, HT-29, SPA-04 (HT29-e22), single agent, dilution 1:1.5, read-out: Prism IC50
[8] = Homo sapiens, HT-29, SPA-10 (HT29-e24), single agent, dilution 1:1.5, read-out: CalcuSyn Dm
[9] = Homo sapiens, HT-29, SPA-10 (HT29-e24), single agent, dilution 1:1.5, read-out: Prism IC50
[10] = Homo sapiens, HT-29, average of preliminary single-agent experiments, HT29, read-out: Average IC50, Dm value
[11] = Daudi growth inhibition, second agent alone, one value per plate, Table 8 (Supplement), read-out: Dm Value (95% Confidence Interval), Individually, Second Agent
[12] = Daudi growth inhibition, second agent alone, Table 8, read-out: Dm Value (95% Confidence Interval), Individually, Second Agent
[13] = SPA-05 (Daudi-e01), single agent, dilution 1:3, read-out: Prism IC50
[14] = SPA-08 (Daudi-e02), single agent, dilution 1:1.5, read-out: CalcuSyn Dm
[15] = SPA-08 (Daudi-e02), single agent, dilution 1:1.5, read-out: Prism IC50
[16] = SPA-15 (Daudi-e03), single agent, dilution 1:1.5 (elsamitrucin 1:1.33), read-out: CalcuSyn Dm
[17] = SPA-15 (Daudi-e03), single agent, dilution 1:1.5 (elsamitrucin 1:1.33), read-out: Prism IC50
[18] = average of preliminary single-agent experiments, read-out: Average IC50, Dm value
[19] = read-out: approximate Dm values for the second drugs as single agents
[20] = SKMES growth inhibition, second agent alone, one value per plate (Experiment ID), read-out: Dm Value (95% Confidence Interval), Individually, Second Agent
[21] = SKMES, single agent on the same plate as the combination, read-out: Dm Value, Individually, Second Agent
[22] = SPA-02 (SKMES-e22), single agent, dilution 1:3, read-out: Prism IC50
[23] = SPA-03 (SKMES-e23), single agent, dilution 1:1.5, read-out: CalcuSyn Dm
[24] = SPA-03 (SKMES-e23), single agent, dilution 1:1.5, read-out: Prism IC50
[25] = SPA-09 (SKMES-e25), single agent, dilution 1:1.5, read-out: CalcuSyn Dm
[26] = SPA-09 (SKMES-e25), single agent, dilution 1:1.5, read-out: Prism IC50
[27] = average of preliminary single-agent experiments, SKMES, read-out: Average IC50, Dm value
[28] = Homo sapiens, HT-29, HT29, single agent on the same plate as the combination, read-out: Dm Value, Individually, Second Agent

SMILES | IC50 [1, 4] | IC50 [1, 5] | IC50 [1, 6] | IC50 [1, 7] | IC50 [1, 10] | IC50 [2, 11] | IC50 [2, 12] | IC50 [2, 13] | IC50 [2, 14] | IC50 [2, 15] | IC50 [2, 16] | IC50 [2, 17] | IC50 [2, 18] | IC50 [2, 19] | IC50 [3, 20] | IC50 [3, 21] | IC50 [3, 22] | IC50 [3, 23] | IC50 [3, 24] | IC50 [3, 27] | further results
O=c1[nH]cc(F)c(=O)[nH]1 [5-Fluorouracil, 5-fluorouracil] | 786 nM | ~3300 nM | 134 nM | 280 nM | 2040 nM | 11700 nM | 11700 nM | ~9200 nM | 11100 nM | 12700 nM | 13200 nM | 11900 nM | 12200 nM | ~11700 nM | 4350 nM | 4350 nM | 438 nM | 5200 nM | ~3300 nM | 3590 nM | change of Dm in the mixture versus single agent ([1]; HT29): increased only slightly; IC50 [1, 8]: 4200 nM; IC50 [1, 9]: 1650 nM; IC50 [3, 25]: 5580 nM; IC50 [3, 26]: 3130 nM
CC(C)C[C@H](NC(=O)[C@H](Cc1ccccc1)NC(=O)c1cnccn1)B(O)O [Bortezomib, bortezomib] | – | 12 nM | 29 nM | 23 nM | 21 nM | 3.9 nM | 3.9 nM | 3.7 nM | 3.4 nM | 4 nM | – | – | 4 nM | ~3.9 nM | 24 nM | 16 nM | – | 21.5 nM | 19.5 nM | 21 nM | IC50 [1, 28]: 17.8 nM
CC[C@@]1(O)C(=O)OCc2c1cc1n(c2=O)Cc2cc3ccccc3nc2-1 [Camptothecin, camptothecin] | – | 16 nM | 26 nM | 23 nM | 153 nM | 9.3 nM | 9.3 nM | 8.5 nM | 11 nM | 9.5 nM | – | – | 10 nM | ~9.3 nM | 8 nM | 8 nM | 6 nM | 11 nM | 11 nM | 9 nM | IC50 [1, 8]: 148 nM; IC50 [1, 9]: 550 nM; increase of Dm in the combination ([3]; SKMES, in combination with elsamitrucin versus single agent): less than 1.5 fold
O=NN(CCCl)C(=O)NCCCl [Carmustine, carmustine] | 128000 nM | > 10000 nM | 60000 nM | 72000 nM | 66000 nM | – | 42000 nM | – | 25000 nM | 28000 nM | 25800 nM | 20800 nM | 24900 nM | ~42000 nM | 69800 nM | 69800 nM | 1440 nM | – | – | – | IC50 [3, 25]: ~96000 nM; IC50 [3, 26]: ~78000 nM
COc1cccc2c1C(=O)c1c(O)c3c(c(O)c1C2=O)C[C@@](O)(C(=O)CO)C[C@@H]3O[C@H]1C[C@H](N)[C@H](O)[C@H](C)O1 [Doxorubicin, doxorubicin] | 48 nM | 40 nM | 57 nM | 29 nM | 42 nM | 9 nM | 9 nM | ~1 nM | ~33 nM | ~9.5 nM | 5 nM | 5 nM | 5 nM | ~9 nM | 83 nM | 56 nM | 7 nM | ~200 nM | ~50 nM | 17 nM | IC50 [3, 25]: 21 nM; IC50 [3, 26]: 23 nM
COc1cc([C@@H]2c3cc4c(cc3[C@@H](O[C@@H]3O[C@@H]5CO[C@@H](C)O[C@H]5[C@H](O)[C@H]3O)[C@H]3COC(=O)[C@H]23)OCO4)cc(OC)c1O [Etoposide, etoposide] | – | ~900 nM | 766 nM | 698 nM | 732 nM | 47 nM | 47 nM | 20.2 nM | 23 nM | 31 nM | – | – | 25 nM | ~47 nM | 237 nM | 237 nM | 199 nM | 317 nM | 287 nM | 268 nM | IC50 [1, 28]: 710 nM
